# According to patent publication US20030228357A1, “Dry granulated formulations of azithromycin” (Pfizer Inc., priority 2002, published 2003):
# Tests used:
# Assay type in all cases: physicochemical
# [1] = Density and Carr's Compressibility Index (flowability) of dry blends and dry granulations
# Description: Carr's Compressibility Index was used to evaluate the flowability of the four dry granulations. Carr's Compressibility Index is a simple test to evaluate flowability by comparing both the initial and final (tapped) bulk volumes and the rate of packing down. A useful empirical guide to flow is given by Carr's compressibility index: Compressibility Index(%)=[(tapped density−initial density)/tapped density]×100 […] The procedure is described in Int. J. Pharm. Tech. & Prod. Mfr., 6(3) 10-16, 1985.
# [2] = Tablet hardness, Schleuniger hardness tablet tester
# Protocol: All four formulations were compressed on the compaction simulator using either 0.344″×0.688″ oval tooling, or ½″ standard round concave (SRC) tooling. The tablets were tested for hardness (kP scale), using a Schleuniger hardness tablet tester (Dr. Schleuniger Pharmatron AG, Solothurn, Switzerland), and for friability (100 rotations/4 minutes) using a Vanderkamp Friabulator Tablet Tester (Vankel, Cary, N.C., US).
# [3] = as above; remark: listed apart in the source
# [4] = Indices of tableting performance (Hiestand) of bulk azithromycin; conditions: forms N, M, G, A milled, F and J unmilled
# Protocol: Indices of tableting performance, for several azithromycin forms, were assessed to identify any mechanical deficiencies or attributes that may affect tablet formulation for these azithromycin forms. This assessment was performed in accordance with the procedures described in “Indices of Tableting, Performance” […] and D. P. Smith, Powder Technology 38 [1984] pp. 145-159. Specifically, the Brittle Fracture Index, BFI, was calculated from the ratio of a material's regular tensile strength to its compromised tensile strength. Strain Index, SI, was determined from the dynamic indentation hardness test. Worst Case Bonding Index was determined by assessing the extent of particle bonding remaining after decompression assuming a very short compression dwell time and a plastic mechanism of particle separation during decompression. Tableting Indices were determined for bulk azithromycin lots of six different crystalline forms, specifically forms N, M, G, A, F and J. Forms N, M and G were milled with a Fitzmill (Model JT, The Fitzpatrick Co., Elmhurst, Ill.) using a 0.027'' screen and knives at high speed in an attempt to match the smaller particle size of milled Form A. Unmilled forms F and J were evaluated “as is” due to their relatively small particle sizes.
# [5] = Tablet disintegration time, Automatic Disintegration Tester; conditions: Table 2A; Long blend; Oval tooling; distilled water at 37° C.
# Protocol: The disintegration time was determined in distilled water at 37° C. using an Automatic Disintegration Tester (Model ZT72, Erweka USA Inc, Milford, Conn.) for the long blend tablets. Even with extensive blending times with magnesium stearate, reasonably short disintegration times of 15 and 20 seconds were obtained.
# [6] = Tablet friability, Vanderkamp Friabulator (100 rotations/4 minutes); conditions: Table 4D; high drug loading; diluent DCP, dihyd.; modified capsule shape
# [7] = Slug (compact) hardness, Schleuniger hardness tablet tester
# Description: A compaction simulator was used to compress the blends. The compaction simulator was designed as a single station tablet press in which the compression dwell time can be adjusted to simulate different types of tablet presses. All the formulations were slugged on the compaction simulator configured as the Kilian RX-67 press with a dwell time of 0.3145 seconds using […] round flat face tooling. The slugs were then comminuted using a Fitz mill with a 0.125″ screen with knives forward and run at slow speed. […] The slugs were tested for hardness (kP scale), using a Schleuniger hardness tablet tester (Dr. Schleuniger Pharmatron AG, Solothurn, Switzerland).
# [8] = 35.2 wt % azithromycin, dicalcium phosphate anhydrous diluent, Long blend method
# [9] = 35.2 wt % azithromycin, dicalcium phosphate anhydrous diluent, Long blend method, slugged
# [10] = 35.2 wt % azithromycin, dicalcium phosphate anhydrous diluent, Short blend method
# [11] = 35.2 wt % azithromycin, dicalcium phosphate anhydrous diluent, Short blend method, slugged
# [12] = Table 3A, low drug loading: 35.2 wt % azithromycin, 54.8 wt % dicalcium phosphate anhydrous, long blend
# [13] = Table 3B, high drug loading: 58.2 wt % azithromycin, 31.8 wt % dicalcium phosphate anhydrous, long blend
# [14] = Table 4A, low drug loading (35.2 wt % azithromycin), diluent DCP, anhyd.
# [15] = Table 4A, low drug loading (35.2 wt % azithromycin), diluent DCP, dihyd.
# [16] = Table 4B, high drug loading (58.2 wt % azithromycin), diluent DCP, anhyd.
# [17] = Table 4B, high drug loading (58.2 wt % azithromycin), diluent DCP, dihyd.
# [18] = Table 7, milled Form A lot, 58.2 wt % azithromycin, DCP anhydrous
# [19] = Table 7, unmilled Form A lot, 58.2 wt % azithromycin, DCP anhydrous
# [20] = Table 7A, 55.76 wt % azithromycin, lactose anhydrous, corn starch, roller compaction 850 psi, dihydrate
# [21] = Table 7 Lot 1, milled, roller compaction, Roll Pressure Setting 850 psi
# [22] = Table 7 Lot 2, milled, roller compaction, Roll Pressure Setting 300 psi
# [23] = Table 7 Lot 3, unmilled, roller compaction, Roll Pressure Setting 500 psi
# [24] = Table 7 Lot 4, unmilled, roller compaction, Roll Pressure Setting 300 psi
structure (smiles),measurement,setting,value
"CC[C@H]1OC(=O)[C@H](C)[C@@H](O[C@H]2C[C@@](C)(OC)[C@@H](O)[C@H](C)O2)[C@H](C)[C@@H](O[C@@H]2O[C@H](C)C[C@H](N(C)C)[C@H]2O)[C@](C)(O)C[C@@H](C)CN(C)[C@H](C)[C@@H](O)[C@]1(C)O [Form A, azithromycin dihydrate, reference compound]",Dry Blend Carr's Index,[1]; [8],44%
same,Dry Blend density As Is,[1]; [8],0.59 g/cc
same,Dry Blend density Tapped,[1]; [8],1.05 g/cc
same,Granulation Carr's Index,[1]; [9],26%
same,Granulation Density As Is,[1]; [9],0.88 g/cc
same,Granulation Density Tapped,[1]; [9],1.19 g/cc
same,Dry Blend Carr's Index,[1]; [10],43%
same,Dry Blend density As Is,[1]; [10],0.59 g/cc
same,Dry Blend density Tapped,[1]; [10],1.04 g/cc
same,Granulation Carr's Index,[1]; [11],32%
same,Granulation Density As Is,[1]; [11],0.78 g/cc
same,Granulation Density Tapped,[1]; [11],1.14 g/cc
same,Granulation Carr's Index,[1]; [12],26%
same,Granulation Density As Is,[1]; [12],0.89 g/cc
same,Granulation Density Tapped,[1]; [12],1.19 g/cc
same,Granulation Carr's Index,[1]; [13],30%
same,Granulation Density As Is,[1]; [13],0.67 g/cc
same,Granulation Density Tapped,[1]; [13],0.96 g/cc
same,Dry Granulation Carr's Index,[1]; [14],26%
same,Dry Granulation Density As Is,[1]; [14],0.89 g/cc
same,Dry Granulation Density Tapped,[1]; [14],1.19 g/cc
same,Dry Granulation Carr's Index,[1]; [15],18%
same,Dry Granulation Density As Is,[1]; [15],0.84 g/cc
same,Dry Granulation Density Tapped,[1]; [15],1.04 g/cc
same,Dry Granulation Carr's Index,[1]; [16],30%
same,Dry Granulation Density As Is,[1]; [16],0.67 g/cc
same,Dry Granulation Density Tapped,[1]; [16],0.96 g/cc
same,Dry Granulation Carr's Index,[1]; [17],25%
same,Dry Granulation Density As Is,[1]; [17],0.69 g/cc
same,Dry Granulation Density Tapped,[1]; [17],0.92 g/cc
same,Dry Blend Carr's Index,[1]; [18],47%
same,Dry Blend density As Is,[1]; [18],0.49 g/cc
same,Dry Blend density Tapped,[1]; [18],0.92 g/cc
same,Dry Blend Carr's Index,[1]; [19],44%
same,Dry Blend density As Is,[1]; [19],0.57 g/cc
same,Dry Blend density Tapped,[1]; [19],1.01 g/cc
same,Dry Granulation Density Tapped,"[1]; Table 7A, 55.76 wt % azithromycin, lactose anhydrous, corn starch, roller compaction 850 psi",0.86 g/cc
same,Dry Granulation Carr's Index,[1]; [20],24%
same,Dry Granulation Density As Is,[1]; [20],0.66 g/cc
same,Dry Granulation Carr's Index,[1]; [21],39%
same,Dry Granulation Density As Is,[1]; [21],0.55 g/cc
same,Dry Granulation Density Tapped,[1]; [21],0.91 g/cc
same,Dry Granulation Carr's Index,[1]; [22],33%
same,Dry Granulation Density As Is,[1]; [22],0.60 g/cc
same,Dry Granulation Density Tapped,[1]; [22],0.90 g/cc
same,Dry Granulation Carr's Index,[1]; [23],30%
same,Dry Granulation Density As Is,[1]; [23],0.64 g/cc
same,Dry Granulation Density Tapped,[1]; [23],0.92 g/cc
same,Dry Granulation Carr's Index,[1]; [24],26%
same,Dry Granulation Density As Is,[1]; [24],0.66 g/cc
same,Dry Granulation Density Tapped,[1]; [24],0.92 g/cc
same,Avg Tablet Hardness,"[2]; Table 2A, 35.2 wt % azithromycin, DCP anhydrous, Long blend, Oval tooling, compression force 13.5 kN (A), 19 kN (F)",9.0 kP
same,Avg Tab Hardness,"[2]; Table 2B Run 4, Short blend, Oval tooling, compression force 12 kN",6.8 kP
same,Avg Tablet Hardness,"[2]; Table 4C, low drug loading, diluent DCP, anhyd., Oval tooling",9.0 kP
same,Avg Tablet Hardness,"[2]; Table 4C, low drug loading, diluent DCP, dihyd., SRC (½″) tooling",6.2 kP
same,Avg Tablet Hardness,"[3]; Table 2A, 35.2 wt % azithromycin, DCP anhydrous, Long blend, ½″ SRC tooling, 9.6 kN",5.8 kP
same,Avg Tab Hardness,"[3]; Table 2B Run 5, Short blend, Oval tooling, compression force 18.7 kN",8.2 kP
same,Avg Hardness,"[3]; Table 3C, low drug loading (35.2 wt % azithromycin), DCP anhydrous, oval tablets, target weight 750 mg",9.0 kP
same,Avg Hardness,"[3]; Table 3D, high drug loading (58.2 wt % azithromycin), DCP anhydrous, modified capsule shape tablets, target weight 450 mg",6.2 kP
same,Avg Tablet Hardness,"[3]; Table 4C, low drug loading, diluent DCP, anhyd., SRC (½″) tooling",5.8 kP
same,Avg Tablet Hardness,"[3]; Table 4C, low drug loading, diluent DCP, dihyd., Oval tooling",6.8 kP
same,Avg Tablet Hardness,"[3]; Table 4D, high drug loading, diluent DCP, anhyd., modified capsule shape",6.2 kP
same,Avg Tablet Hardness,"[3]; Table 4D, high drug loading, diluent DCP, dihyd., modified capsule shape",5.2 kP
same,Brittle Fracture Index (BFI),[4],0.10
same,Strain Index (SI),[4]; dihydrate,0.0044
same,Tensile Strength,[4]; dihydrate,0.99 Mpa
same,Worst Case Bonding Index (BIw) × 10^2,[4]; dihydrate,0.9
same,Mean disintegration Time,[5],15 s
same,Friability,[6],0.49%
same,Avg Slug Hardness,[7]; [8],13.4 kP
same,Avg Slug Hardness,[7]; [10],13.7 kP
same,Avg Slug Hardness,[7]; [12],13 kP
same,Avg Slug Hardness,[7]; [13],12 kP
same,Avg Slug Hardness,[7]; [14],13 kP
same,Avg Slug Hardness,[7]; [15],11 kP
same,Avg Slug Hardness,[7]; [16],12 kP
same,Avg Slug Hardness,[7]; [17],10 kP
